This is an account of results in ChEMBL document CHEMBL1143756, “Alpha-substituted N-(4-tert-butylbenzyl)-N'-[4-(methylsulfonylamino)benzyl]thiourea analogues as potent and stereospecific TRPV1 antagonists” (Bioorg Med Chem, 2007).

The target of experiment [1] is T1, Transient receptor potential cation channel subfamily V member 1 (Rattus norvegicus, UniProt O35433). The experiment in a line: Displacement of [3H]RTX from rat TRPV1 receptor expressed in CHO cells. Type of experiment: cell-based. For orientation: Loss of bound radioactivity is the signal in a displacement assay; it reports binding, not function.
T1 sequence (O35433 whole entry): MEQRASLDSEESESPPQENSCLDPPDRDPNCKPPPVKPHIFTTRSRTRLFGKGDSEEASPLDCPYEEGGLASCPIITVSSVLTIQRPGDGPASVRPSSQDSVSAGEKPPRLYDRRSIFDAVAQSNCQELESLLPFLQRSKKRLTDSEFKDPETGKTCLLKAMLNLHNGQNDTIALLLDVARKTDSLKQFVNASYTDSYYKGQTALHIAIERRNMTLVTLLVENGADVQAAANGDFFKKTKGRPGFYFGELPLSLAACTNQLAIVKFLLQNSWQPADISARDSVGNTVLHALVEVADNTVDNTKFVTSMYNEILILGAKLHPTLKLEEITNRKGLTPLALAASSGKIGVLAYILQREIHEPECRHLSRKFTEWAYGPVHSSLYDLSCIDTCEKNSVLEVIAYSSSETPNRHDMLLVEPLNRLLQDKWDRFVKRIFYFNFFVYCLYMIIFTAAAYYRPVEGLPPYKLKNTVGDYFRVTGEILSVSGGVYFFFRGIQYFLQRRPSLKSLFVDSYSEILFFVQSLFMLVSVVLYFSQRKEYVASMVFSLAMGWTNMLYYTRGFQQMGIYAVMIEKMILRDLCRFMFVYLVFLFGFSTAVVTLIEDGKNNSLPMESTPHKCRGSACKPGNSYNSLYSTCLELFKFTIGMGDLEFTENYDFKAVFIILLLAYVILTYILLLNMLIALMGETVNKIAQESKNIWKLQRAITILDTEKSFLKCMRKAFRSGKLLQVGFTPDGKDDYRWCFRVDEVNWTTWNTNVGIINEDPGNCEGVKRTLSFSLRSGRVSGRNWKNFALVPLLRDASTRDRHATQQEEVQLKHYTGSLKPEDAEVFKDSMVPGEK
The target of experiment [2] is T1, Transient receptor potential cation channel subfamily V member 1. The experiment in a line: Antagonist activity at rat TRPV1 receptor expressed in CHO cells by Ca2+ uptake assay.
The target of experiment [3] is Transient receptor potential cation channel subfamily V member 1 (Rattus norvegicus) (UniProt O35433). The experiment in a line: Agonist activity at rat TRPV1 receptor expressed in CHO cells by Ca2+ uptake assay. Type of experiment: functional, cell-based.
Chain of Transient receptor potential cation channel subfamily V member 1 (Rattus norvegicus) (O35433 whole entry): as above

SMILES strings stand for the structures.

In experiment [1], `C[C@H](NC(=S)NCc1ccc(C(C)(C)C)cc1)c1ccc(NS(C)(=O)=O)cc1` returned a Ki of 3950 nM.

Turning to `CN(C)CCCN1c2ccccc2Sc2ccc(Cl)cc21` [CHLORPROMAZINE], the Ki in experiment [1] came to 1300 nM; in experiment [2] it was 520 nM.

In turn, `C[C@H](/N=C(\S)NCc1ccc(C(C)(C)C)cc1)c1ccc(NS(C)(=O)=O)cc1` displayed an Activity in experiment [3] of 8%.

`COc1cc(CNC(=S)NCc2ccc(C(C)(C)C)cc2)ccc1NS(C)(=O)=O` gave an Activity in experiment [3] of 18%. The Ki in experiment [1] was found to be 51 nM.

Consider `CC(C)(C)c1ccc(CNC(=S)NC(C)(C)c2ccc(NS(C)(=O)=O)cc2)cc1`, for which, in experiment [2], affinity was put at a Ki of 1800 nM.

On to `CC(NC(=S)NCc1ccc(C(C)(C)C)cc1)c1ccc(NS(C)(=O)=O)cc1` (configuration not stated), for which the Ki is 59.3 nM in experiment [1] and 14.7 nM in experiment [2].

Consider `C[C@H](NC(=S)NCc1ccc(C(C)(C)C)cc1)c1ccc(NS(C)(=O)=O)c(F)c1`, for which the Ki in experiment [1] was found to be 2140 nM; in experiment [2], 2670 nM.

`C[C@@H](NC(=S)NCc1ccc(C(C)(C)C)cc1)c1ccc(NS(C)(=O)=O)c(F)c1` had a Ki in experiment [2] of 37 nM.

One may read the Ki as a dissociation constant, usually derived from enzyme kinetics or from competition with a known ligand. A higher Ki goes with a looser hold on the target.
